Values of other authors in US20260174718A1, “MODULATORS OF mTORC1 ACTIVITY AND USES THEREOF” (Navitor Pharmaceuticals, Inc., priority 2022, published 2026).

Tested on: mice
Details: ketamine 2.5 mg/kg, intraperitoneally

For CNC1(c2ccccc2Cl)CCCCC1=O (stereo not shown) [ketamine], the “effect of ketamine challenge alone in the forced swim test” value is given as “ineffective”.
